Assay results published in paper PMC11399425, “Tricyclic and tetracyclic antidepressants upregulate VMAT2 activity and rescue disease-causing VMAT2 variants” (Neuropsychopharmacology, 2024).

Key:
VMAT2 [1] = biological target: T1, VMAT2 (Mus musculus, UniProt Q8BRU6); assay: FFN206 uptake inhibition assay (30-min treatment) in HEK-VMAT2 cells; settings: for Hill Slope (inhibition): 30 min inhibition curve fit; for Imax, % vehicle (mean ± SEM): VMAT2 activity at 100 μM compound, 30 min, normalized to vehicle (100%)
Description: We detected colocalization of VMAT2 and FFN206 using epifluorescence microscopy (Fig. S2) and used FFN206 uptake to measure VMAT2 activity in HEK cells stably expressing mouse VMAT2 (HEK-VMAT2). We tested seven tricyclics and three tetracyclics that are approved for clinical use in humans (Fig. 1A, B). […] Next, we assessed the potency of the tricyclics and tetracyclics using dose response experiments.
For the inhibition assay, HEK-VMAT2 cells were seeded at 50,000 cells/well on day 1. […] Cells were incubated with FFN206 for 1hr. FFN206 uptake was terminated by aspirating the medium, and cells were washed twice with 200μL warm PBS (supplemented with 500μM MgCl2 and 900μM CaCl2), each with 5min incubation. Subsequently, 100μL warm PBS was added to each well and the plate was read with a Mithras LB 940 plate reader at excitation/emission filters 380nm/450nm.

VMAT2 [2] = biological target: T1, VMAT2; assay: FFN206 uptake upregulation assay (18-h treatment, washout) in HEK-VMAT2 cells; type: cell-based; set-up: The full-length mouse and human SLC18A2 cDNAs encoding VMAT2 were cloned into pcDNA3.1 vectors; expressed in transfected cells; settings: for Emax, % vehicle (mean ± SEM) / EC50: 18 h treatment followed by washout; for Emax, % vehicle (mean ± SEM): at Emax concentration; for Emax concentration: 18 h treatment, concentration giving Emax; for Hill slope (upregulation): 18 h upregulation curve fit; for Effect on VMAT2 activity, sustained: 10 μM, washout, vs vehicle; for Effect on VMAT2 activity, sustained / Effect on VMAT2 activity, sustained, known VMAT2 inhibitors: 18 h; for EC50: HEK-VMAT2 cells, read-out: EC50 (95% CI), VMAT2 upregulation; for Effect on VMAT2 activity, sustained, known VMAT2 inhibitors: increasing concentrations (Fig. S5)
DAT (SLC6A3) = DAT (SLC6A3) (Homo sapiens, UniProt Q01959); settings: 100 μM, 18 h, HEK-YFP-DAT cells
Description: (§1) HEK293, HEK-VMAT2, HEK-YFP-DAT, and HEK-SERT cells were seeded at 5,000,000 cells/dish density in 10 cm tissue culture dishes. […] On the collection day, cells were washed once with cold PBS, then harvested with 2 mL Tris-EDTA buffer (25 mM Tris-HCl, 1 mM EDTA, pH 7.4) containing freshly-added protease/phosphatase inhibitors. The cells were mechanically lysed on ice by Polytron (medium setting, 5 sec on, 5 sec off, two cycles), and centrifuged at 800 x g for 10 min at 4 °C to pellet the nuclear fraction. […] The supernatant was discarded and the pellet containing membrane proteins was resuspended with Tris-EDTA buffer with inhibitors and 0.2% SDS by vortexing until the pellet was dissolved. The protein concentration was determined using Pierce™ BCA Protein Assay Kits following the manufacturer’s instructions.
(§2) Electrophoretic resolution was done in MOPS-SDS running buffer (50 mM MOPS, 50 mM Tris, 0.1% SDS, 1 mM EDTA). The proteins were transferred onto a […] PVDF membrane and stained using Revert™ 700 Total Protein Stain. The resolved proteins were visualized at 700 nm on an Odyssey® M imaging system (LI-COR, Inc.). […] For the VMAT2 blot, the membrane was incubated with rabbit serum (in 50% glycerol) containing anti-mVMAT2 antibody against C-terminal peptide ([…]) at 1:3000 dilution overnight at 4 °C [24]. For the YFP-DAT blot, the membrane was incubated with rabbit-anti-GFP antibody (A11122) at 1:1500 dilution for 2 h at room temperature. For the SERT blot, the membrane was incubated with rabbit anti-SERT antibody (A104336, Antibodies.com) at 1:1000 dilution overnight at 4 °C. IRDye® 800CW Goat anti-Rabbit IgG secondary antibody at 1:7000 dilution in 3% non-fat milk in TBST was used for all blots. The blots were visualized under 700 nm and 800 nm channels on the Odyssey® M imaging system (LI-COR, Inc.) and quantified using ImageJ and Empiria Studio.

VMAT2 [3] = biological target: T1, VMAT2; settings: 100 μM, 18 h, HEK-VMAT2 cells
Description: as §1, §2

SERT (SLC6A4) = biological target: T2, SERT (SLC6A4) (Homo sapiens, UniProt P31645); type: cell-based
T2 construct: expressed in transfected cells
Description: as §1
Electrophoretic resolution was done in MOPS-SDS running buffer (50 mM MOPS, 50 mM Tris, 0.1% SDS, 1 mM EDTA). The proteins were transferred onto a […] PVDF membrane and stained using Revert™ 700 Total Protein Stain. The resolved proteins were visualized at 700 nm on an Odyssey® M imaging system (LI-COR, Inc.). […] The blots were visualized under 700 nm and 800 nm channels on the Odyssey® M imaging system (LI-COR, Inc.) and quantified using ImageJ and Empiria Studio.

[4] = system: monoamine transporter mRNA (VMAT2, VMAT1, DAT, NET, SERT); assay: RT-qPCR of endogenous monoamine transporters mRNA in BE(2)-M17 cells; type: cell-based, human; settings: 10 μM, 18 h
Description: (§3) HEK-VMAT2, HEK-YFP-DAT, HEK-SERT, and BE(2)-M17 cells were seeded in 6-well tissue culture plates at 1,000,000 cells/well density. […] On the third day, medium was aspirated and the cells were directly collected in 1 mL/well of Trizol for RNA isolation [26]. RNA was reverse-transcribed into cDNA using the SuperScript™ IV VILO™ Master Mix with ezDNase™ Enzyme. Quantitative RT-qPCR was performed using PowerUp™ SYBR™ Green Master Mix and QuantStudio 3 Real-Time PCR System (ThermoFisher Scientific). The relative fold of gene expression was calculated as 2^-(∆∆Ct) normalized to GAPDH levels.

hDAT mRNA = assay: RT-qPCR of hDAT in HEK-YFP-DAT cells; type: cell-based, human; settings: 100 μM, 18 h, HEK293 cells
Description: as §3

[5] = system: nine missense VMAT2 BMVTD variants; assay: FFN206 uptake of transiently transfected VMAT2 BMVTD variants in HEK293T cells; type: cell-based, human; settings: 50 μM, 18 h, total FFN206 fluorescence
hSERT mRNA = assay: RT-qPCR of hSERT in HEK-SERT cells; settings: 100 μM, 18 h, HEK293 cells
Description: as §3

mVMAT2 mRNA = assay: RT-qPCR of mVMAT2 in HEK-VMAT2 cells; settings: 100 μM, 18 h, HEK293 cells
Description: as §3

VMAT2 [6] = biological target: VMAT2 (Homo sapiens, UniProt Q05940); settings: 10 μM, 18 h, BE(2)-M17 cells
VMAT2 P237H = VMAT2 P237H (Homo sapiens, UniProt Q05940, P237H); settings: 18 h, increasing concentration
VMAT2 P387L = VMAT2 P387L (Homo sapiens, UniProt Q05940, P387L); settings: 18 h, increasing concentration
[7] = ref PubChem; cited from earlier work

CN(C)CCC=C1c2ccccc2CCc2ccccc21 [AMI, Amitriptyline]
IC50 (VMAT2 [1]): 12.4 µM | Hill Slope (inhibition) (VMAT2 [1]): –1.173 | Imax, % vehicle (mean ± SEM) (VMAT2 [1]): 8.47 ± 1.88 % vehicle | Emax, % vehicle (mean ± SEM) (VMAT2 [2]): 237.26 ± 7.63 % vehicle | Emax concentration (VMAT2 [2]): 31.62 µM | Hill slope (upregulation) (VMAT2 [2]): 1.728

CNCCCN1c2ccccc2CCc2ccccc21 [DES, Desipramine]
IC50 (VMAT2 [1]): 16.2 µM | Hill Slope (inhibition) (VMAT2 [1]): –1.176 | Imax, % vehicle (mean ± SEM) (VMAT2 [1]): 7.51 ± 1.28 % vehicle | Effect on VMAT2 activity, sustained (VMAT2 [2]): significant upregulation of VMAT2 activity | EC50 (VMAT2 [2]): 17.1 µM | Emax, % vehicle (mean ± SEM) (VMAT2 [2]): 177.59 ± 5.96 % vehicle | Emax concentration (VMAT2 [2]): 56.23 µM | Hill slope (upregulation) (VMAT2 [2]): 1.530

CN(C)CCCN1c2ccccc2CCc2ccccc21 [IMI, Imipramine]
Total DAT protein (DAT (SLC6A3)): did not affect total DAT protein | Total VMAT2 protein (VMAT2 [3]): significant increase | Total SERT protein (SERT (SLC6A4)): significantly increased total SERT protein | Monoamine transporter mRNA (including VMAT2) [4]: no upregulation in any monoamine transporter mRNA | DAT mRNA expression (hDAT mRNA): elevated mRNA expression | Activity of all VMAT2 variants [5]: significant upregulation of activity of all VMAT2 variants | SERT mRNA expression (hSERT mRNA): elevated mRNA expression | VMAT2 mRNA expression (mVMAT2 mRNA): elevated mRNA expression | IC50 (VMAT2 [1]): 17.3 µM | Hill Slope (inhibition) (VMAT2 [1]): –1.195 | Effect on VMAT2 activity, sustained (VMAT2 [2]): significant upregulation of VMAT2 activity | EC50 (VMAT2 [2]): 29.9 µM | Emax, % vehicle (mean ± SEM) (VMAT2 [2]): 245.36 ± 15.06 % vehicle | Emax, % vehicle (mean ± SEM) (VMAT2 [2]; listed as imipramine): 245.36 % vehicle | Hill slope (upregulation) (VMAT2 [2]): 1.505

CN1CCN2c3ccccc3Cc3ccccc3C2C1 (stereo not shown) [MIA, Mianserin]
Total DAT protein (DAT (SLC6A3)): did not affect total DAT protein | Activity of all VMAT2 variants [5]: significant upregulation of activity of all VMAT2 variants | Endogenous VMAT2 activity (VMAT2 [6]; followed by washout): 270 % of vehicle | Endogenous VMAT2 activity without washout (VMAT2 [6]; without drug washout): significant upregulation of endogenous VMAT2 activity | Variant VMAT2 activity, dose-response (VMAT2 P237H): dose-dependent upregulation | Variant VMAT2 activity, dose-response (VMAT2 P387L): dose-dependent upregulation | logP [7]: 3.4

CN1CCN2c3ncccc3Cc3ccccc3C2C1 (stereo not shown) [MIR, mirtazapine]
IC50 (VMAT2 [1]): 170 µM | Hill Slope (inhibition) (VMAT2 [1]): –0.978 | Imax, % vehicle (mean ± SEM) (VMAT2 [1]): 63.27 ± 7.1 % vehicle | EC50 (VMAT2 [2]): 35.1 µM | Emax, % vehicle (mean ± SEM) (VMAT2 [2]): 175.11 ± 7.95 % vehicle | Emax concentration (VMAT2 [2]): 100 µM | Hill slope (upregulation) (VMAT2 [2]): 2.486

CNCCC=C1c2ccccc2CCc2ccccc21 [NOR, Nortriptyline]
IC50 (VMAT2 [1]): 13.3 µM | Hill Slope (inhibition) (VMAT2 [1]): –0.920 | Imax, % vehicle (mean ± SEM) (VMAT2 [1]): 8.73 ± 1.11 % vehicle | Effect on VMAT2 activity, sustained (VMAT2 [2]): significant upregulation of VMAT2 activity | Emax, % vehicle (mean ± SEM) (VMAT2 [2]): 207.90 ± 18.90 % vehicle | Emax concentration (VMAT2 [2]): 31.62 µM | Hill slope (upregulation) (VMAT2 [2]): 0.915

CNCCCC1c2ccccc2C=Cc2ccccc21 [PRO, Protriptyline]
IC50 (VMAT2 [1]): 4.35 µM | Hill Slope (inhibition) (VMAT2 [1]): –1.042 | Imax, % vehicle (mean ± SEM) (VMAT2 [1]): 2.93 ± 0.24 % vehicle | Effect on VMAT2 activity, sustained (VMAT2 [2]): significant upregulation of VMAT2 activity | Emax, % vehicle (mean ± SEM) (VMAT2 [2]): 223.92 ± 11.02 % vehicle | Emax concentration (VMAT2 [2]): 31.62 µM | Hill slope (upregulation) (VMAT2 [2]): 0.777

COc1cc2c(cc1OC)C1CC(=O)C(CC(C)C)CN1CC2 (stereo not shown) [TBZ, tetrabenazine]
IC50 (VMAT2 [1]): 0.037 µM | Hill Slope (inhibition) (VMAT2 [1]): –0.598 | Imax, % vehicle (mean ± SEM) (VMAT2 [1]): 9.51 ± 0.67 % vehicle | Effect on VMAT2 activity, sustained, known VMAT2 inhibitors (VMAT2 [2]): no upregulation of VMAT2 activity was observed

CC(CN(C)C)CN1c2ccccc2CCc2ccccc21 (stereo not shown) [TRI, Trimipramine]
IC50 (VMAT2 [1]): 13.1 µM | Hill Slope (inhibition) (VMAT2 [1]): –1.173 | Imax, % vehicle (mean ± SEM) (VMAT2 [1]): 5.87 ± 1.33 % vehicle | Effect on VMAT2 activity, sustained (VMAT2 [2]): significant upregulation of VMAT2 activity | EC50 (VMAT2 [2]): 31.1 µM | Emax, % vehicle (mean ± SEM) (VMAT2 [2]): 194.63 ± 22.32 % vehicle | Emax concentration (VMAT2 [2]): 100 µM | Hill slope (upregulation) (VMAT2 [2]): 1.939

O=C(CCCN1CCC(O)(c2ccc(Cl)cc2)CC1)c1ccc(F)cc1 [haloperidol]
Effect on VMAT2 activity, sustained, known VMAT2 inhibitors (VMAT2 [2]): no upregulation of VMAT2 activity was observed
